Source: patent US20190069553A1, “METHOD FOR CONTROLLING PPO RESISTANT WEEDS” (BASF SE, priority 2016, published 2019)
Where two headings read alike, the source gives them in different places.

Assays:
Format in all cases: in vivo
[1] = system: Amaranthus tamariscinus (common waterhemp, AMATA), sensitive biotype (w.10); test: Greenhouse herbicidal activity test, third experiment, weed w.10; conditions: scale 0 to 100
[2] = system: Amaranthus tamariscinus (common waterhemp, AMATA), PPO resistant biotype 7 (w.11); test: Greenhouse herbicidal activity test, third experiment, weed w.11; conditions: use rate 4 g/ha; PPO resistant biotype 7 common waterhemp; scale 0 to 100
[3] = system: Amaranthus tamariscinus (common waterhemp, AMATA), PPO resistant biotype 8 (w.12); test: Greenhouse herbicidal activity test, third experiment, weed w.12; conditions: use rate 4 g/ha; PPO resistant biotype 8 common waterhemp; scale 0 to 100
[4] = system: Amaranthus tamariscinus (common waterhemp, AMATA), sensitive biotype (w.1); conditions: scale 0 to 100
[5] = system: Ambrosia elatior (common ragweed, AMBEL), sensitive biotype (w.4); conditions: scale 0 to 100
[6] = system: Amaranthus tuberculatus (tall waterhemp, AMATU), sensitive biotype (w.7); test: Greenhouse herbicidal activity test, another (second) experiment, weed w.7; conditions: scale 0 to 100

Compound	Weed control (%) w.10 ([1]; use rate 2 g/ha) [%]	Weed control (%) w.10 ([1]; use rate 4 g/ha) [%]	Weed control (%) w.11 [2] [%]	Weed control (%) w.12 [3] [%]	Weed control (%) w.1 ([4]; use rate 1 g/ha) [%]	Weed control (%) w.1 ([4]; use rate 2 g/ha) [%]	Weed control (%) w.4 ([5]; use rate 1 g/ha) [%]	Weed control (%) w.4 ([5]; use rate 2 g/ha) [%]	Weed control (%) 7 ([6]; use rate 1 g/ha) [%]	Weed control (%) 7 ([6]; use rate 2 g/ha) [%]
CCOC(=O)COc1ccccc1Oc1cc(-n2c(=O)cc(C(F)(F)F)n(C)c2=O)c(F)cc1Cl [compound (I).4]	100	100	100	99						
CCOC(=O)COc1ncccc1Oc1cc(-n2c(=O)cc(C(F)(F)F)n(C)c2=O)c(F)cc1Cl [compound (I).1, ethyl [3-[2-chloro-4-fluoro-5-(1-methyl-6-trifluoromethyl-2,4-dioxo-1,2,3,4-tetrahydropyrimidin-3-yl)phenoxy]-2-pyridyloxy]acetate]					100	100	100	100	100	100
C#CCN1C(=O)COc2cc(F)c(N3C(=O)C4=C(CCCC4)C3=O)cc21 [flumioxazin, reference compound]					90	95	50	65		
C#CCOc1cc(-n2nc3n(c2=O)CCCC3)c(Cl)cc1Cl [azafenidin, reference compound]	95	98	73	72						
